Assay results as given in patent US20260137697A1, “THIAZOLO[5,4-D]PYRIMIDINE COMPOUNDS, COMPOSITIONS COMPRISING THEM AND USES THEREOF” (University de Montreal, priority 2022, published 2026).

What was measured:
[1] = target: T1, BRAF (Homo sapiens, UniProt P15056); test: BRAF kinase activity assay (ADP-Glo); format: biochemical; conditions: Table 3; 10 μM ATP, kinase-dead MEK1 substrate
T1 construct: GST; purchased Millipore Sigma B4062-10UG
Procedure: (§1) Compound preparation: solid samples of each substance in 1dram vials were suspended in DMSO (Fisher Scientific) at a stock concentration of 20 mM. Stocks were kept at −20° C. and protected from light. If solubility of the compound at 20 mM appeared to be an issue, the initial concentration of the DMSO stock was changed to 10 mM or 5 mM.
(§2) In vitro enzymatic reactions were used for evaluating compounds intrinsic activity against BRAF, CRAF and ARAF. For BRAF and CRAF, 0.375 nM of purified GST-tagged kinases (cat. No. B4062-10UG and cat. No. R1656-10UG respectively from Millipore Sigma) were incubated with 75 nM of kinase-dead MEK1 substrate (cat. No. 40075; BPS Bioscience) in the presence of 10 μM of Ultrapure ATP (cat. No. V9102; Promega; part V915A) with and without the test compound in a buffer containing 50 mM HEPES pH 7.5, 10 mM MgCl2, 1 mM EDTA, 0.01% Brij-35 and 2 mM DTT. Separate reactions were performed with the MEK1 substrate and ATP as a blank control. ARAF kinase reactions were rigorously the same with the exception that kinase concentration was raised to 3.75 nM (cat. No. 1768-0000-1; Reaction Biology).
(§3) For compound treatment, 5 μL/well of test substance solution are placed in a 384-well proxyplate (Perkin Elmer) and mixed with 2× concentrated kinase reactions. The dilution series is selected so that nine concentrations cover a range from 100 nM to 0.01 nM. […] The final concentration of DMSO in the assay is set at 0.05%.
(§4) BRAF and CRAF kinase reactions were carried out for a total of 2 hours at 30° C. and then stopped by 1/2 dilution in ADP-Glo Reagent (cat. No. V9102; Promega; part V912C). Reactions were then incubated for 1 h at room temperature before addition of one volume of Kinase Detection Reagent (cat. No. V9102; Promega; part V917A). Plates were then equilibrated at room temperature for 30 minutes before detection of luminescence on a Synergy Neo2 plate reader (Biotek). The effect of each compound dilution on BRAF and CRAF kinase activity was expressed as % inhibition and calculated as follows. First, the internal 100% inhibition control (average of luminescence in kinase reactions comprising kinase dead MEK1 substrate alone) was subtracted from each data point. The average of DMSO (vehicle) controls (set as 0% inhibition) was established and used to calculate % inhibition:
(§5) IC50 values were obtained by plotting the kinase inhibition values and fitting the dose-activity curves using a log(agonist) versus response—variable slope (four parameters) function using either GraphPadPrism (V7.0) or Dotmatics Screening Ultra platform. Standards included in the ARAF kinase assay were Belvarafenib (MedChem Express cat. No. HY-109080; CAS No. 1446113-23-0), LXH254 (MedChem Express cat. No. HY-112089; CAS No. 1800398-38-2) and BGB283 (cat. No. HY-18957; CAS No. 1446090-79-4).

[2] = tested on: pERK, HCT116 cells; test: Phospho-ERK inhibition, AlphaLISA p-ERK 1/2, HCT-116; format: cell-based, human; conditions: Table 3; for IC50: HCT116 cells (KRAS G13D), 1 h treatment; for HCT116 pERK (Ymin %): lowest % inhibition value of the pERK IC50 curve, above −20% = no paradoxical induction
Procedure: All cancer cell lines (A375, A101D, A2058, RKO, HT29 SK-MEL 30, IPC298, HepG2, HCT-116, Lovo, SW620, SW480, NCI-H358, NCI-H2122, Calu-6, NCIH2087, NCIH1755, NCIH1666 and Mewo) were obtained from ATCC and cultured in RPM1-1640 medium (Gibco) supplemented with 5% heat inactivated fetal bovine serum (FBS, Wisent) at 37° C. under 5% CO2. Cells were maintained in T175 flasks (Greiner). They were passaged by removing the culture medium, washing once in 10 mL of room temperature Phosphate Buffered Saline (PBS; Wisent) and incubating at 37° C. with 2 mL of 0.05% Trypsin (Thermo-Fisher). Trypsin was then inactivated by adding complete growth medium and the cells were then replated in a T175 culture dish at the appropriate dilution. All cell lines were routinely tested for mycoplasma contamination. Tissue type and mutational status of each cell line can be found in Table B.
(c) Measurement of Phospho-ERK Inhibition in Cultivated Human Cancer Cell Lines by the AlphaLISA® SureFire® Ultra™ p-ERK 1/2 (Thr2O2/Tyr204)
AlphaLISA® SureFire® Ultra™ p-ERK 1/2 (Thr202/Tyr204) analysis was conducted on cells plated in 100 μL of complete RPMI-1640 growth medium in 96-well flat-bottomed transparent dishes (Costar) at a density indicated in Table C. Cells were maintained overnight at 37° C. under 5% CO2 before treatment with compounds' dilution series for one hour. The cell density in cells/cm^2 corresponds to cell number divided by the area of one well of a 96-well plate (0.143 cm^2).
In a dilution series 100 μL/well of test substance dilution prepared in complete RPMI-1640 growth media was added to the cells. The dilution series is selected so that ten concentrations cover a range from 10 μM to 0.33 nM. If necessary, the initial concentration of 10 μM is increased to 100 μM or lowered to 1 μM (as in the case of A375 and H1666 cells, which are generally more sensitive to the compounds) and further dilution is carried out accordingly. The final concentration of DMSO in the assay is set at 0.5%.
After treatment, media was removed, and cells were lysed in 50 μL of 1× AlphaScreen Ultra Lysis Buffer (Perkin Elmer). The AlphaLISA® SureFire® Ultra™ p-ERK 1/2 (Thr202/Tyr204) (PerkinElmer) reactions were performed with 5 μL of cell lysate according to the manufacturer's specifications in 384-well proxyplates (Perkin Elmer) followed by overnight incubation of the reactions at room temperature in a humidified chamber. After completion of the reactions, the signals were recorded on an EnVision plate reader (Perkin Elmer) using built in AlphaLISA® settings.
The effect of each compound dilution on the pERK signal was expressed in % inhibition and calculated as follows. An internal 100% inhibition control (1 μM trametinib, cat. No. HY-10999; MedChem Express; CAS No. 871700-17-3) was included in each plate and used as a measure of pERK background. First, the value obtained for trametinib was subtracted from each data point. The average of DMSO (vehicle) controls (set as 0% inhibition) was established and used to calculate % inhibition:
The ability of each compound to inhibit pERK signal was expressed as an IC50 value obtained by plotting the inhibition values for each data point of a dilution series and fitting the obtained curves using a log(agonist) versus response—variable slope (four parameters) function using GraphPadPrism (V7.0) or Dotmatics Screening Ultra platform.
When present, paradoxical pERK induction is inferred from the negative % inhibition values observed in the pERK IC50 curves of a compound.

[3] = target: T2, CRAF (Homo sapiens, UniProt P04049); test: CRAF kinase activity assay (ADP-Glo); format: biochemical; conditions: Table 3; 10 μM ATP, kinase-dead MEK1 substrate
T2 construct: fused on or other part: GST tag (N-terminal according to the vendor's product)
T2 sequence (P04049 whole entry Y340E/Y341E, form open, the tested form may be a part): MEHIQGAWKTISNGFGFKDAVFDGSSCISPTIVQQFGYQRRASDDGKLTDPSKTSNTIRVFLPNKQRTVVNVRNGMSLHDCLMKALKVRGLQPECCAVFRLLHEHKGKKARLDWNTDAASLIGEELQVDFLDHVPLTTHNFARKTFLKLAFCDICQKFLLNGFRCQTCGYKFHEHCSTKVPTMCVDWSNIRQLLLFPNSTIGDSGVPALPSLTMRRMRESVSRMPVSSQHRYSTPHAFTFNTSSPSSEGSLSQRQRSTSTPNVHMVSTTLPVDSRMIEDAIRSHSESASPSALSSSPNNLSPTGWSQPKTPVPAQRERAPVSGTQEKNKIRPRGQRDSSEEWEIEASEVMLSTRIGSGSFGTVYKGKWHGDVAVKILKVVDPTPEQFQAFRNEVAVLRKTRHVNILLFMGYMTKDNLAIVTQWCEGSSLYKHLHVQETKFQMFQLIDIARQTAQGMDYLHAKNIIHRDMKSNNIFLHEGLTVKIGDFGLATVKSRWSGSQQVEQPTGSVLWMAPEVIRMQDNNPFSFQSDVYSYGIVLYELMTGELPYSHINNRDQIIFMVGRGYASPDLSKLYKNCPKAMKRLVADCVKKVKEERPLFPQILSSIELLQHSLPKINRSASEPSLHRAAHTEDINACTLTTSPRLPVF
Procedure: as §1, §2, §3, §4, §5

T1 sequence (P15056 whole entry): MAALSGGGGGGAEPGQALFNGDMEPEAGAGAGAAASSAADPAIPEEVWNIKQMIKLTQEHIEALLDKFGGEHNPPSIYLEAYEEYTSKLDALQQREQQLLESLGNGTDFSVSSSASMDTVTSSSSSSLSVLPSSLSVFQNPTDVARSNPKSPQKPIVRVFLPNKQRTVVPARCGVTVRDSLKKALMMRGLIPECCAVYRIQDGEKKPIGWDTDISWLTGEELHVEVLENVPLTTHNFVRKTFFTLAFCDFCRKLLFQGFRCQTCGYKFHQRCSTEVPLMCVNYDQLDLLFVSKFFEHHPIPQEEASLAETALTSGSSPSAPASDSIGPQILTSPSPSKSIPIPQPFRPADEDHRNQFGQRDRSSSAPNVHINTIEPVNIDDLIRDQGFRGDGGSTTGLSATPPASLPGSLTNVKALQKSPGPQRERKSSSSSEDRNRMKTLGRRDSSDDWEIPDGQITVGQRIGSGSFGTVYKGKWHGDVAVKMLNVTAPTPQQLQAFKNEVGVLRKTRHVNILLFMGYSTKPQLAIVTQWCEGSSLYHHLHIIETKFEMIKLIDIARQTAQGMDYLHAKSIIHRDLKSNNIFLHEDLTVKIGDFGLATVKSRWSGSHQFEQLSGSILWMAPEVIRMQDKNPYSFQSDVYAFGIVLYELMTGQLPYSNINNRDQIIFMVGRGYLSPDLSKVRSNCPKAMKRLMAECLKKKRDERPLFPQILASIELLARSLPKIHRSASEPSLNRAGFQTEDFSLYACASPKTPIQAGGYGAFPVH

Compound	IC50 [1]	IC50 [2]	HCT116 pERK (Ymin %) [2]	IC50 [3]	IC50 ([2]; Homo sapiens, HCT-116)
Cc1c(F)cccc1S(=O)(=O)Nc1ccc(F)c(Nc2ncnc3sc(-n4cc(C(=O)N5CCC(CO)C5)c5ccccc54)nc23)c1F (stereo not drawn) [Example 33]	< 1 nM	< 500 nM	−7%	< 10 nM	–
Cc1c(F)cccc1S(=O)(=O)Nc1ccc(F)c(Nc2ncnc3sc(-n4nc(C(=O)N5C6CCC5COC6)c5ccccc54)nc23)c1F [Example 34]	> 10 nM	1000 to 10000 nM	−13%	10 to 50 nM	–
Cc1c(F)cccc1S(=O)(=O)Nc1ccc(F)c(Nc2ncnc3sc(-n4cnc5c(F)cccc54)nc23)c1F [Example 35]	1 to 10 nM	< 500 nM	−8%	< 10 nM	–
Cc1c(Cl)cccc1S(=O)(=O)Nc1ccc(F)c(Nc2ncnc3sc(-n4cnc5c(F)cccc54)nc23)c1F [Example 36]	1 to 10 nM	1000 to 10000 nM	−13%	10 to 50 nM	–
O=S(=O)(Nc1ccc(F)c(Nc2ncnc3sc(-n4cnc5ccccc54)nc23)c1F)c1ccccc1Cl [Example 37]	1 to 10 nM	< 500 nM	−11%	< 10 nM	–
O=S(=O)(Nc1ccc(F)c(Nc2ncnc3sc(-n4cnc5c(F)cccc54)nc23)c1F)c1ccccc1Cl [Example 38]	1 to 10 nM	500 to 1000 nM	−6%	< 10 nM	–
Cc1c(F)cccc1S(=O)(=O)Nc1ccc(F)c(Nc2ncnc3sc(-n4nc(C(=O)N(C)CCN(C)C)c5ccccc54)nc23)c1F [Example 39]	< 1 nM	< 500 nM	−12%	< 10 nM	–
Cc1c(F)cccc1S(=O)(=O)Nc1ccc(F)c(Nc2ncnc3sc(-n4cc(C(=O)N5C6CCC5COC6)c5ccccc54)nc23)c1F [Example 40]	< 1 nM	< 500 nM	−7%	< 10 nM	–
CN(C)CCN(C)S(=O)(=O)c1cn(-c2nc3c(Nc4c(F)ccc(NS(=O)(=O)c5cccc(Cl)c5Cl)c4F)ncnc3s2)c2ccccc12 [Example 41]	< 1 nM	< 500 nM	0%	< 10 nM	–
Cc1c(F)cccc1S(=O)(=O)Nc1ccc(F)c(Nc2ncnc3sc(-n4nc(C(=O)N5C6CCC5CN(C)C6)c5ccccc54)nc23)c1F [Example 42]	> 10 nM	500 to 1000 nM	2%	10 to 50 nM	–
COCCN(C)C(=O)c1cn(-c2nc3c(Nc4c(F)ccc(NS(=O)(=O)c5cccc(F)c5C)c4F)ncnc3s2)c2ccccc12 [Example 43]	< 1 nM	< 500 nM	9%	< 10 nM	–
CN(Cc1ccncc1)C(=O)c1cn(-c2nc3c(Nc4c(F)ccc(NS(=O)(=O)c5cccc(Cl)c5Cl)c4F)ncnc3s2)c2ccccc12 [Example 45]	< 1 nM	< 500 nM	−4%	< 10 nM	–
CN(Cc1cccnc1)C(=O)c1cn(-c2nc3c(Nc4c(F)ccc(NS(=O)(=O)c5cccc(Cl)c5Cl)c4F)ncnc3s2)c2ccccc12 [Example 46]	1 to 10 nM	< 500 nM	1%	< 10 nM	–
O=S(=O)(Nc1ccc(F)c(Nc2ncnc3sc(-n4cnc5cc(Cl)c(Cl)cc54)nc23)c1F)c1cccc(Cl)c1Cl [Example 47]	1 to 10 nM	–	–	10 to 50 nM	1000 to 10000 nM
COCCN(C)S(=O)(=O)c1cn(-c2nc3c(Nc4c(F)ccc(NS(=O)(=O)c5cccc(Cl)c5Cl)c4F)ncnc3s2)c2ccccc12 [Example 48]	1 to 10 nM	500 to 1000 nM	0%	10 to 50 nM	–
O=S(=O)(Nc1ccc(F)c(Nc2ncnc3sc(-n4cnc5c(F)c(F)ccc54)nc23)c1F)c1cccc(Cl)c1Cl [Example 49]	1 to 10 nM	–	–	< 10 nM	500 to 1000 nM
CN(CCc1ccccn1)C(=O)c1cn(-c2nc3c(Nc4c(F)ccc(NS(=O)(=O)c5cccc(Cl)c5Cl)c4F)ncnc3s2)c2ccccc12 [Example 50]	< 1 nM	< 500 nM	1%	< 10 nM	–
